“Also recorded” adds a separate entry of the source. No end group written: not given here.
How the values were obtained:
BACE-1 [1] = tested on: BACE-1; set-up: method as in Lee et al., 2019; details: ref Lee et al., 2019; cited from earlier work
SH-SY5Y cells = tested on: SH-SY5Y cells; set-up: method as in Lee et al., 2019; details: ref Lee et al., 2019; cited from earlier work
[2] = Peptide quantification in mouse organs by mass spectrometry; format: in vivo; details: mice, 4 mg/kg i.v.
Protocol: (§1) A single dose of the peptide diluted in sterile PBS (pH 7.4) was injected intravenously in the bolus into the caudal vein of mice (n = 3) at a concentration of 4 mg/kg (0.2 mL). A group of animals (n = 3) received the sterile saline solution for the plasma and organ control, without the peptide (named ‘basal’). Blood was taken after 0, 5, and 30 min and 2, 6, and 24 h after injection. At these times, blood was collected via the retro-orbital route using a Pasteur pipette and dispensed into plastic tubes containing EDTA. The final blood volume was subjected to centrifugation at 1,500 rpm for 10 min at room temperature to obtain plasma, which was stored in a −80°C freezer until the analysis.
Moreover, organs were obtained at the same times, after a lethal injection of anesthetics (ketamine 300 mg/kg and xylazine 30 mg/kg). The organs collected included the brain, pancreas, spleen, kidneys, lungs, and liver. The organs were washed with the saline solution to remove excess blood, frozen in liquid nitrogen, and kept at −80°C until use. For the experiments, organs were submerged in 1 mL of 50 mM PBS with pH 7.5 containing peptidases inhibitors (aprotinin, bestatin, E-64, leupeptin, and pepstatin A, a protease inhibitor cocktail, Sigma-Aldrich) and lysed in a tissue and cell disruptor (ULTRA-TURRAX IKA, Staufen, Germany). The lysate was centrifuged for 2 min at 13,200 rpm at 4°C, and the supernatant resulting from centrifugation was stored in a −80°C freezer until the analysis.
(§2) Both plasma and organs (150 μL) were incubated with 100 mM DL-dithiothreitol at room temperature for 30 min; after that, they were incubated to 300 mM iodoacetamide at room temperature for another 30 min in the dark. Subsequently, 150 μL of 0.1% formic acid solution and 400 μL of Milli-Q water were added and agitated for 5 min. The samples were then submitted to solid-phase extraction using a C18 cartridge (Supelco) with elution in a 60:40 acetonitrile:water solution (v/v). The eluate was inserted by mass spectrometry for analysis and quantification.
(§3) The determination and quantification of the peptide in plasma and organs of mice were performed by liquid chromatography (UPLC system, Waters Co.) coupled to mass spectrometry ESI-Xevo TQ-S (Waters Co., United States). The samples were inserted in a C18 column (Luna, 5 μm, 150 × 4.6 mm, Phenomenex) and eluted by 70% methanol in water, containing 0.05% formic acid in a constant flow of 0.3 mL/min. The ion was monitored at the positive ionization mode, 150°C source temperature, 550°C desolvation temperature, 800 L/h desolvation gas flow, 2 kV for capillary, and […] cone voltage. Data were acquired and analyzed using MassLynx 4.
(§4) To define the relationship between the instrument response and the known concentration of the peptide, a calibration curve with six points of the peptide (0.1–20 μg/mL for plasma and 5–40 μg/mL for organs) was generated in a range defined according to the sensitivity of the method and the expected concentrations of the samples in animals (based on the amount of peptide injected).
(§5) The plasma concentration (Cp), in µg/L, was determined by mass spectrometric analysis, and then, area data were analyzed using the PKSolver add-in program for Microsoft Excel. Pharmacokinetics parameters as the natural logarithm of Cp (lnCp), Cp0, half-life, and clearance were calculated in a compartmental analysis of plasma data after the intravenous bolus input ([Zhang et al., 2010]). For organs, data are present as mean ± SD for each point.

in vivo = assay: in vivo; set-up: species or system mice; details: mouse
Protocol: Authorization for pharmacokinetics analyses was obtained from the Ethics Committee of Instituto Butantan (CEUAIB 58872400322), where the experiments with animals were carried out. Healthy adult male Swiss mice weighing approximately 25 g were used. All animals were placed in microisolators for a 12-h light/dark cycle, 70% humidity, and a constant average temperature (22°C).
as §1, §2, §3, §4
Each analysis lot contained the following samples: a calibration curve consisting of a blank sample (peptide-free biological matrix), samples containing peptide standard, and plasma or organ samples. Calibration functions were calculated using the peak areas of the peptide. The peptide concentrations in the samples were calculated from the weighted linear regression equation (1/×2) obtained from the calibration curve (peptide concentration as the function of the area). This regression model (1/×2) was used because of the amplitude of the calibration curve.
as §5

[3] = Histology of organs and toxicity after peptide injection; format: in vivo, mice
Excerpt: Organs were removed and immediately fixed in Bouin’s solution for processing by dehydration ethanol sessions and historesin embedding to obtain 3 µm thick transversal slides. Sections were stained with hematoxylin–eosin and examined using a light microscope for a qualitative analysis.

recombinant BACE-1 = target: T1, recombinant BACE-1 (Homo sapiens, UniProt P56817); assay: Enzymatic kinetics on recombinant BACE-1 (Lineweaver-Burk); format: biochemical; details: 10 μM peptide, substrate 0–32 µM
T1 construct: purchased Sigma-Aldrich MAK237
Protocol: The peptide was commercially obtained (manufactured by Biotik, commercialized by FastBio, Brazil) and synthetized by the solid phase with >95% purity. The peptide was tested using an enzymatic kinetics model, in which 10 μM of peptide (diluted in 0.9% saline solution) was incubated with recombinant BACE-1 and reaction buffer for 15 min at room temperature (MAK237, Sigma-Aldrich, St Louis, MO, United States). After that, H-Arg-Glu (EDANS)[…](DABCYL)Arg-OH quencher substrate (0–32 µM) was added to the reaction mixture. Readings were taken using a fluorimeter (Glomax, Promega, Madison, WI, United States) every 5 min at 37° in a λex = 335 and λem = 510. Experiments were conducted in triplicate in two independent sets, and the mean of fluorescence was obtained for further calculations. The velocity of the reaction was calculated as ∆ fluorescence values at ∆ time for each substrate concentration. 1/V and 1/S values were obtained and plotted in a graph (Lineweaver–Burk plot), and kinetic parameters (slope, Vmax, Km, and Ki) were calculated as the mean ± SD using GraphPad Prism v5.

BACE-1 [4] = tested on: BACE-1; set-up: method as in Wu et al., 2016; details: ref Wu et al., 2016; cited from earlier work

T1 sequence (P56817 46-501): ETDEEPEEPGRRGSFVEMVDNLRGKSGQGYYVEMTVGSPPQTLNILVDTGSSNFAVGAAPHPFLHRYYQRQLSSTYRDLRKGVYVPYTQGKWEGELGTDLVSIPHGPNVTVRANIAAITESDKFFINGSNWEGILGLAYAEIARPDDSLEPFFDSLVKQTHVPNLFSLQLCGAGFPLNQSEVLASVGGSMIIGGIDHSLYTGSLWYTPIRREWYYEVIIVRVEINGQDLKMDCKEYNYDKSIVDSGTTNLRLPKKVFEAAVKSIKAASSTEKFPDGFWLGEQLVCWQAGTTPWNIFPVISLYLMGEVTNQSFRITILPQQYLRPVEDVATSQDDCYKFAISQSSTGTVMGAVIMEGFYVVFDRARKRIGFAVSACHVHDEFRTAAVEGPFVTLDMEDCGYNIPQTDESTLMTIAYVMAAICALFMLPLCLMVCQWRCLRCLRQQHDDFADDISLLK

## Leu–Asn
BACE-1 [1]
  BACE-1 inhibitory activity among fragments derived from the original peptide: most potent activity
SH-SY5Y cells
  Aβ production in SH-SY5Y cells: reducing the Aβ production

## SLAFVDVLN [peptide]
[2]
  Peptide concentration in the kidneys over time: increased 30 min after the injection, slightly decreased after 2 h, but increased after 6 h
  Time of peak of the peptide in the brain: 2 h
  Time of peak of the peptide in the liver: 30 min
  Time of peak of the peptide in the spleen: 30 min
  Time the peptide could be found in the brain: up to 6 h
[2]; 5 min after injection
  Peptide concentration in the lungs: high concentration
[2]; 4 mg/kg
  Peptide in the pancreas: not possible to identify; also recorded: could not be found
In vivo; male, Swiss, iv, 4 mg/kg
  AUC(0-inf): 2600 ng·h/mL
  AUC(0-t): 2600 ng·h/mL
  C0: 2600 ng/mL
  MRT: 1 h
In vivo; male, Swiss, iv, 4 mg/kg, t1/2
  half-life: ~1 h
In vivo
  Vss: 0.0015
  clearance: 0.0015
In vivo; iv
  Enzymatic cleavage of the peptide in vivo (intact mass, fragments by mass spectrometry): no enzymatic cleavage
In vivo; iv, 4 mg/kg
  AUMC: 2,595.96 μg/L*h^2
  CL: 0.00154 (mg/kg)/(μg/L)/h
  V: 0.00154 (mg/kg)/(μg/L)
  Vss: 0.0015 mg/kg/(μg/L)
[3]; mice, single dose
  Clinical signals of toxicity: no clinical signals of toxicity were observed
[3]; spleen, liver, pancreas, lungs, kidneys, 5 and 30 min, 2 and 6 h after single 4 mg/kg i.v. dose, 4 mg/kg
  Histological alterations (cell/tissue morphology, inflammatory infiltrate): no morphological alteration in any organ; also recorded: No alterations were detected
Recombinant BACE-1
  Ki: 0.094 µM

## pyrazinecarboxamide
BACE-1 [4]
  IC50: < 0.001 µM

— publication PMC10313070, “Design, in silico and pharmacological evaluation of a peptide inhibitor of BACE-1” (Frontiers in Pharmacology, 2023)
